Reference: US9988375B2, “Inhibitors of lysine gingipain” (priority 2014, dated 2018)

target: lysine gingipain (Kgp) (Porphyromonas gingivalis (strain ATCC 33277 / DSM 20709 / CIP 103683 / JCM 12257 / NCTC 11834 / 2561), UniProt B2RLK2); test: Lysine gingipain (Kgp) fluorogenic inhibition assay; assay type: biochemical; conditions: 0.1 nM Kgp, 10 uM Z-His-Glu-Lys-MCA, 90 minutes, 37° C., pH 7.5; read-out: Kgp IC50 average
Protocol: The capacities of compounds of the present invention to inhibit the activity of lysine gingipain were measured in a fluorogenic assay similar to those described in Barret Biochemical Journal. 1980, 187(3), 909. The specific assay conditions were as follows. Buffer: pH=7.5, 100 mM Tris-HCl, 75 mM NaCl, 2.5 mM CaCl2, 10 mM cysteine, 1% DMSO after all additions. Protein: 0.1 nM Kgp, isolated from culture of Porphyromonas gingivalis, as described in Pike et al. J. Biol. Chem. 1994, 269(1), 406, and Potempa and Nguyen. Current Protocols in Protein Scienc. 2007, 21.20.1-21.20.27. Fluorogenic substrate: 10 uM Z-His-Glu-Lys-MCA. Time=90 minutes. Temperature=37° C. Each compound: 10 concentrations, starting at either 100 uM or 100 nM, with lower concentrations generated by serial 3-fold dilutions. By testing a range of concentrations for each compound, the concentration required to inhibit the activity of lysine gingipain by 50% (the “IC50”) was determined. Under the described assay conditions, signal-to-noise was excellent, and Z factor was greater than 0.6.
The inhibitory of activity of compounds described herein was tested against Kgp, RgpB, and trypsin.

Structure (SMILES)	IC50
NCCCCC(NC(=O)[C@@H]1CCCN(C(=O)CCc2ccccc2)C1)C(=O)c1nc2ccccc2s1 (single isomer, unassigned) [Compound 14]	1 to 10 nM
NCCCCC(NC(=O)[C@@H]1CCCN(C(=O)CCc2ccccc2)C1)C(=O)c1nc2ccccc2s1 (single isomer, unassigned) [Compound 15]	1 to 10 nM
NCCCC[C@H](NC(=O)C1CCCOC1)C(=O)c1nc2ccccc2s1 (single isomer, unassigned) [Compound 18]	10 to 25 nM
NCCCC[C@H](NC(=O)C1CCCOC1)C(=O)c1nc2ccccc2s1 (single isomer, unassigned) [Compound 19]	10 to 25 nM
NCCCC[C@H](NC(=O)C1CCCCO1)C(=O)c1nc2ccccc2s1 (single isomer, unassigned) [Compound 25]	25 to 50 nM
NCCCC[C@H](NC(=O)C1CCCCO1)C(=O)c1nc2ccccc2s1 (single isomer, unassigned) [Compound 26]	25 to 50 nM
NCCCC[C@H](NC(=O)C1CCCO1)C(=O)c1nc2ccccc2s1 (single isomer, unassigned) [Compound 34]	1 to 10 nM
NCCCC[C@H](NC(=O)C1CCCO1)C(=O)c1nc2ccccc2s1 (single isomer, unassigned) [Compound 35]	1 to 10 nM
NCCCC[C@H](NC(=O)c1ccccc1C(F)(F)F)C(=O)c1nc2ccccc2s1 [Compound 7, N-[(1S)-5-amino-1-(1,3-benzothiazole-2-carbonyl)pentyl]-2-(trifluoromethyl)benzamide]	25 to 50 nM
CC(=O)N1CCC[C@H](C(=O)N[C@@H](CCCCN)C(=O)c2nc3ccccc3s2)C1 [Compound 8, (3S)-1-acetyl-N-[(1S)-5-amino-1-(1,3-benzothiazole-2-carbonyl)pentyl] piperidine-3-carboxamide]	10 to 25 nM
CC(=O)N1CCC[C@@H](C(=O)N[C@@H](CCCCN)C(=O)c2nc3ccccc3s2)C1 [Compound 9, (3R)-1-acetyl-N-[(1S)-5-amino-1-(1,3-benzothiazole-2-carbonyl)pentyl]piperidine-3-carboxamide]	1 to 10 nM
CC(=O)N1CCC[C@H](C(=O)N[C@H](CCCCN)C(=O)c2nc3ccccc3s2)C1 [Compound 10, (3S)-1-acetyl-N-[(1R)-5-amino-1-(1,3-benzothiazole-2-carbonyl)pentyl] piperidine-3-carboxamide]	10 to 25 nM
CC(=O)N1CCC[C@@H](C(=O)N[C@H](CCCCN)C(=O)c2nc3ccccc3s2)C1 [Compound 11, (3R)-1-acetyl-N-[(1R)-5-amino-1-(1,3-benzothiazole-2-carbonyl)pentyl]piperidine-3-carboxamide]	1 to 10 nM
NCCCC[C@H](NC(=O)c1ccccn1)C(=O)c1nc2ccccc2s1 [Compound 12, N-[(1S)-5-amino-1-(1,3-benzothiazole-2-carbonyl)pentyl]pyridine-2-carboxamide]	50 to 100 nM
NCCCC[C@H](NC(=O)c1ccncc1)C(=O)c1nc2ccccc2s1 [Compound 13, N-[(1S)-5-amino-1-(1,3-benzothiazole-2-carbonyl)pentyl]pyridine-4-carboxamide]	25 to 50 nM
NCCCC[C@H](NC(=O)C1CCOCC1)C(=O)c1nc2ccccc2s1 [Compound 22, N-[(1S)-5-amino-1-(1,3-benzothiazole-2-carbonyl)pentyl]tetrahydropyran-4-carboxamide]	10 to 25 nM
NCCCC[C@H](NC(=O)OCc1ccccc1)C(=O)c1nc2ccccc2s1 [Compound 23, Benzyl-N-[(1S)-5-amino-1-(1,3-benzothiazole-2-carbonyl)pentyl]carbamate]	100 to 250 nM
NCCCC[C@H](NC(=O)C1CCCC1)C(=O)c1nc2ccccc2s1 [Compound 24, N-[(1S)-5-amino-1-(1,3-benzothiazole-2-carbonyl)pentyl]cyclo-pentanecarboxamide]	1 to 10 nM
CC(=O)N1CCOC(C(=O)N[C@@H](CCCCN)C(=O)c2nc3ccccc3s2)C1 (stereo partly drawn) [Compound 29, 4-acetyl-N-[(1S)-5-amino-1-(1,3-benzothiazole-2-carbonyl)pentyl]morpholine-2-carboxamide]	10 to 25 nM
